Where a name gives a salt, the structure may show the parent alone. Read-outs that look alike come from different tables or passages of the source. Marks after values point to notes of the source that are not given here.
What was measured:
[1] = system: NA, DA and 5-HT; assay: In vivo brain microdialysis: extracellular monoamines in striatum and frontal cortex; parameters: species or system Sprague-Dawley rats; settings: 50 μmol/kg s.c., n=1-3; for response vs control in vivo at 50 µmol/kg: Rattus norvegicus, sc
Source text: The microdialysis technique is a well-established technique for measuring extracellular levels of neurotransmitters (Ungerstedt, J Int Med, 1991, 230; 365-73). The microdialysis technique was used to measure the effect of compounds disclosed herein upon the efflux of monoamine transmitters (NA, DA and 5-HT) in striatum and frontal cortex in conscious, freely moving rats.
Male Sprague-Dawley rats weighing 280-320 g were used throughout the experiments. Before the experiment the animals were housed in groups, maximum five animals in each cage, with free access to water and food. The animals were housed at least one week prior to surgery and use in the experiments.
A modified version (Waters et al., J Neural Transm Gen Sect, 1994, 98(1); 39-55) of the !-shaped probe (Santiago and Westerink, N-S Arch Pharmacol, 1990, 342; 407-14) with the AN69 polyacrylonitrile/sodium methyl sulfonate copolymer (HOSPAL; o.d/i.d. 310/220 μm: dialysis membrane (Gambro, Lund, Sweden) was used in the microdialysis experiments. In the dorsal striatum, probes with an exposed length of 3 mm of dialysis membrane were used and in the prefrontal cortex the corresponding length was 2.5 mm. The rats were operated under isoflurane inhalation anesthesia while mounted into a Kopf stereotaxic instrument. Coordinates were calculated relative to bregma; dorsal striatum AP+1.0, ML±2.6, DV 6.2; Pf cortex, AP+3.2, ML±1.2, DV −4.0 8°, according to Paxinos and Watson (New York, Academic Press, 1986; FIG. 8 and FIG. 14). The dialysis probe was positioned in a burr hole under stereotaxic guidance and cemented with phosphatine dental cement (DAB Dental).
The rats were housed individually in cages for 48 h before the dialysis experiments, allowing them to recover from surgery and minimizing the risk of drug interactions with the anesthetics during the following experiments. During this period the rats had free access to food and water. On the day of the experiment the rats were connected to a micro-perfusion pump via a swivel and were replaced in the cage where they could move freely within its confinements. The perfusion medium was a Ringer's solution containing (in mmol/l): NaCl; 140, CaCl2); 1.2, KCl; 3.0, MgCl2; 1.0 (Moghaddam and Bunney. Neurochem., 1989, 53; 652-4). The pump was set to a perfusion speed of 2 μl/min and 40 μl sample volume were collected every 20 min.
The rats were perfused for at least 40 min before sampling began. Five fractions of each 20 min were collected and the last three were used for the establishment of the baseline. After collection of baseline fractions, the pharmacological challenge to the dialysis experiment started. Test compounds were administrated by injection (s.c.) in a volume of 5 ml/kg, with 0.9% NaCl (saline) as vehicle.
The analytical method were based on two chromatographic separations dedicated for amines or acids. Two chromatographic systems shared a common auto injector with a 10-port valve and two sample loops for simultaneous injection on the two systems.
The acids were separated by reversed phase chromatography while the amines were separated by reversed phase ion pairing chromatography preceded by a reverse phase separation in a column switching configuration. Three separation columns (Luna C18 (2), dp 3 μm, 2 mm i.d., Phenomenex) of different lengths were used. Electrochemical detection was accomplished on glassy carbon electrodes (MF-1000, Bioanalytical Systems, Inc.)
The aqueous mobile phase (0.6 ml/min) for the acid system contained citric acid (40 mM, dipotassium hydrogen phosphate 10 mM, methanol 8-11% (v/v) and EDTA 0.1 mM. Column length was 30 mm and detection potential relative to Ag/AgCl reference was 0.74V.
The aqueous ion pairing mobile phase (0.4 ml/min) for the amine system contained citric acid 5 mM, sodium citrate 10 mM, acetone 9% (v/v), tetrahydrofurane 3% (v/v), dodecane sulphonic acid 0.025 mM, and EDTA 0.1 mM. Column length was 50 mm and the preceding column was 20 mm. […]

[2] = target: Human 5-HT Transporter (SERT (h)) (Homo sapiens (Human), UniProt P31645); assay: Radioligand binding assay, human 5-HT transporter ([3H]imipramine); settings: 1 h; single concentration 1.0 E-5 M, duplicate, mean values
Experimental: (The measurement was performed as described in Tatsumi, M., Jansen, K., Blakely, R. D. and Richelson, E. (1999), Pharmacological profile of neuroleptics at human monoamine transporters, Eur. J. Pharmacol.
Cell membrane homogenates (12 μg protein) are incubated for 60 min at 22° C. with 2 nM [3H]imipramine in the absence or presence of the test compound in a buffer containing 50 mM Tris-HCl (pH 7.4), 120 mM NaCl, 5 mM KCl and 0.1% BSA.
Nonspecific binding is determined in the presence of 10 μM imipramine.
Following incubation, the samples are filtered rapidly under vacuum through glass fiber filters (GF/B, Packard) presoaked with 0.3% PEI and rinsed several times with an ice-cold buffer containing 50 mM Tris-HCl and 150 mM NaCl using a 96-sample cell harvester (Unifilter, Packard). The filters are dried then counted for radioactivity in a scintillation counter (Topcount, Packard) using a scintillation cocktail (Microscint 0, Packard).
The results are expressed as a percent inhibition of the control radioligand specific binding
(§1) […] Reported values are mean values.

[3] = target: Human Norepinephrine Transporter (NET (h)) (Homo sapiens (Human), UniProt P23975); assay: Radioligand binding assay, human norepinephrine transporter ([3H]nisoxetine); settings: 2 h; single concentration 1.0 E-5 M, duplicate, mean values
Experimental: (The measurement was performed as described in Pacholczyk, T., Blakely, R. D. and Amara, S. G. (1991), Expression cloning of a cocaine- and antidepressant-sensitive human noradrenaline transporter, Nature, 350: 350)
(§2) Cell membrane homogenates (20 μg protein) are incubated for 120 min at 4° C. with 1 nM [3H]nisoxetine in the absence or presence of the test compound in a buffer containing 50 mM Tris-HCl (pH 7.4), 120 mM NaCl and 5 mM KCl. Nonspecific binding is determined in the presence of 1 μM desipramine. Following incubation, the samples are filtered rapidly under vacuum through glass fiber filters (GF/B, Packard) presoaked with 0.3% PEI and rinsed several times with ice-cold 50 mM Tris-HCl using a 96-sample cell harvester (Unifilter, Packard). The filters are dried then counted for radioactivity in a scintillation counter (Topcount, Packard) using a scintillation cocktail (Microscint 0, Packard).
(§3) The results are expressed as a percent inhibition of the control radioligand specific binding.
as §1

[4] = target: Human Dopamine Transporter (DAT (h)) (Homo sapiens (Human), UniProt Q01959); assay: Radioligand binding assay, human dopamine transporter ([3H]BTCP); settings: 2 h; single concentration 1.0 E-5 M, duplicate, mean values
Experimental: (The measurement was performed as described in Pristuba, Z. B., Wilson, J. M., Hoffman, B. J., Kish, S. J. and Nisnik, H. B. (1994), Pharmacological heterogeneity of the cloned and native human dopamine transporter: disassociation of [3H]WIN 35,428 and [3H]GBR 12,935 binding, Mol. Pharmacol., 45: 125)
Cell membrane homogenates (20 μg protein) are incubated for 120 min at 4° C. with 4 nM
as §2, with “[3H]BTCP” for “Cell membrane homogenates (20 μg protein) are incubated for 120 min at 4° C. with 1 nM [3H]nisoxetine”, “7.4) and 100” for “7.4), 120”, “NaCl.” for “NaCl and 5 mM KCl.”, “10” for “1”, “BTCP.” for “desipramine.”
as §3, §1

[5] = frontal cortex, read-out: 5-HT FC, maximum effect compared to baseline ± SEM
[6] = frontal cortex, read-out: DA FC, maximum effect compared to baseline ± SEM
[7] = frontal cortex, read-out: NA FC, maximum effect compared to baseline ± SEM
[8] = striatum, read-out: DA Stri, maximum effect compared to baseline ± SEM
[9] = striatum, read-out: 5-HT Stri, maximum effect compared to baseline ± SEM

Sequence of Human Norepinephrine Transporter (NET (h)) (P23975 whole entry): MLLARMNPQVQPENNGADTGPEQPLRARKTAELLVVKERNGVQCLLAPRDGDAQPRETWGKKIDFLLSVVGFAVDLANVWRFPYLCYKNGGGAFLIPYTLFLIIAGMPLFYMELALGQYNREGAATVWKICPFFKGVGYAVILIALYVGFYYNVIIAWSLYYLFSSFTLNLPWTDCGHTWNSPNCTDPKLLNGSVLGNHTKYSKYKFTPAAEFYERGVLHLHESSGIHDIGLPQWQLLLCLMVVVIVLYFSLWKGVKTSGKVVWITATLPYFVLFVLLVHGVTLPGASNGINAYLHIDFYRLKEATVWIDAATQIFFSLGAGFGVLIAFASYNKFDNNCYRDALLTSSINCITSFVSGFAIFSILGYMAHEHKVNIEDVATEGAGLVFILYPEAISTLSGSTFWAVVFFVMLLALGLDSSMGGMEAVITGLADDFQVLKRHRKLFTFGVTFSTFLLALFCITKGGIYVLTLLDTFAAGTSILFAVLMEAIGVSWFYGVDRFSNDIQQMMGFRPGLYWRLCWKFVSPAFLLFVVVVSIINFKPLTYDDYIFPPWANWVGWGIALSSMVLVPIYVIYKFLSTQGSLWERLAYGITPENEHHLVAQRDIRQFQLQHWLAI
Sequence of Human Dopamine Transporter (DAT (h)) (Q01959 whole entry): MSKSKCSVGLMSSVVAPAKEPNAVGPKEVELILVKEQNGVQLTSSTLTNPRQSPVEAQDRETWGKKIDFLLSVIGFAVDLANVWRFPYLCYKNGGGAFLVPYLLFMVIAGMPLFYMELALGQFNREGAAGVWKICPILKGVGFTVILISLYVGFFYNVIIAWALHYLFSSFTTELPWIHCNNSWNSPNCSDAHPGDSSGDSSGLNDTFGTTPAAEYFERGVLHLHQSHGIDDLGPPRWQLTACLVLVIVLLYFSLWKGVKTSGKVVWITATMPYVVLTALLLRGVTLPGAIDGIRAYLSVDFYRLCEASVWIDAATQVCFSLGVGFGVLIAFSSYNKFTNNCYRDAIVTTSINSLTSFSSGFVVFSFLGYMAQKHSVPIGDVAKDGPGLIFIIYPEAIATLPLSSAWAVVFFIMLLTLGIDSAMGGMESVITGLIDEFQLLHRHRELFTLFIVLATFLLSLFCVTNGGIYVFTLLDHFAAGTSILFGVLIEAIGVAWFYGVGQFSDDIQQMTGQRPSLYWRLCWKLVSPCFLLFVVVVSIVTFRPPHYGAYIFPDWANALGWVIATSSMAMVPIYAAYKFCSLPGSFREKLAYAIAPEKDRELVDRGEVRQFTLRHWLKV
Sequence of Human 5-HT Transporter (SERT (h)) (P31645 whole entry): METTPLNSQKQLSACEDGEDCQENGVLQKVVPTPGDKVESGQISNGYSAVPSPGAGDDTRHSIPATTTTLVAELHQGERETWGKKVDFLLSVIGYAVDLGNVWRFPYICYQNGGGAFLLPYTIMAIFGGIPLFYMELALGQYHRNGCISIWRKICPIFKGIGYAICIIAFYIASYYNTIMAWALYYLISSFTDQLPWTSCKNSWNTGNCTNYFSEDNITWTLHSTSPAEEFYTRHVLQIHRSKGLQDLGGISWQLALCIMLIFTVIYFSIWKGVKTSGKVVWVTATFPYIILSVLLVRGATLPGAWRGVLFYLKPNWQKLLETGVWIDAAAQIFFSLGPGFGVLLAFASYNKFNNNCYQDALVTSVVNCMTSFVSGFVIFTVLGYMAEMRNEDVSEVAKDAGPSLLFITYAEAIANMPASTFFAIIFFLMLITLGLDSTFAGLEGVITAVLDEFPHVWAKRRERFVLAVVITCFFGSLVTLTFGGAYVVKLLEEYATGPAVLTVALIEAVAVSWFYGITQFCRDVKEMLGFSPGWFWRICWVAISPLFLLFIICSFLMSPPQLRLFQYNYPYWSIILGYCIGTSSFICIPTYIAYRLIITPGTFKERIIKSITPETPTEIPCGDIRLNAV

Row | Compound | inhibition at 10 µM [2] [%] | inhibition at 10 µM [3] [%] | inhibition at 10 µM [4] [%] | response vs control in vivo at 50 µmol/kg [1, 5] [%] | response vs control in vivo at 50 µmol/kg [1, 6] [%] | response vs control in vivo at 50 µmol/kg [1, 7] [%] | response vs control in vivo at 50 µmol/kg [1, 8] [%] | response vs control in vivo at 50 µmol/kg [1, 9] [%] | NA Stri, maximum effect compared to baseline ± SEM ([1]; striatum)
1 | Fc1ccc(OC2CNC2)c(F)c1F [Example 10, 3-(2,3,4-trifluoro-phenoxy)azetidine fumaric acid salt] | 29 | -2 | 15 | 709 ± 139 | 466 ± 161 | 799 ± 137 | 126 ± 10 | – | –
2 | Fc1c(F)c(F)c(OC2CNC2)c(F)c1F [Example 43, 3-(2,3,4,5,6-pentafluoro-phenoxy)azetidine hydrochloric acid salt] | -7.6 | -1 | 11 | – | – | – | – | – | –
3 | CN1CC(Oc2c(F)c(F)cc(F)c2F)C1 [Example 38, 1-methyl-3-(2,3,5,6-tetrafluorophenoxy)azetidine hydrochloric acid salt] | -11 | 6 | 11 | 148 ± 12 | 467 ± 20 | 422 ± 102 | 203 ± 8 | 205 ± 20 | 306 ± 146^a % of control

Continued, in another order:

Row | inhibition at 10 µM [2] [%] | inhibition at 10 µM [3] [%] | inhibition at 10 µM [4] [%] | Compound | response vs control in vivo at 50 µmol/kg [1, 5] [%] | response vs control in vivo at 50 µmol/kg [1, 6] [%] | response vs control in vivo at 50 µmol/kg [1, 7] [%] | response vs control in vivo at 50 µmol/kg [1, 8] [%] | response vs control in vivo at 50 µmol/kg [1, 9] [%] | NA Stri, maximum effect compared to baseline ± SEM ([1]; striatum)
4 | 28 | 3 | 17 | Fc1cc(OC2CNC2)cc(F)c1F [Example 50, 3-(3,4,5-Trifluorophenoxy)azetidine hydrochloric acid salt] | 752 ± 235 | 787 ± 131 | – | 139 ± 20 | 574 ± 45 | –
5 | 10 | 6 | 12 | Fc1cc(F)c(OC2CNC2)c(F)c1 [Example 49, 3-(2,4,6-Trifluorophenoxy)azetidine hydrochloric acid salt] | – | 391 ± 131 | 862 ± 437 | 135 ± 2 | 573 ± 1 | 353^b % of control
6 | 25 | 5 | 10 | Fc1cc(F)c(OC2CNC2)cc1F [Example 51, 3-(2,4,5-Trifluorophenoxy)azetidine hydrochloric acid salt] | 998 ± 470 | 389 ± 134 | 910 ± 389 | 144 ± 4 | 663 ± 63 | 475^b % of control

— US10875829B1, “Azetidine derivatives useful as modulators of cortical catecholaminergic neurotransmission” (Integrative Research Laboratories Sweden AB, priority 2016, dated 2020)
